Laboratory results: patent US20190192697A1, “CHEMICAL PROBES OF LYSYL OXIDASK-LIKE 2 AND USES THEREOF” (PHARMAKEA, INC., priority 2016, published 2019)
Structures can show the parent of a compound that is named as a salt.

What was measured:
[1] = biological target: T1, LOXL2 (Homo sapiens, UniProt Q9Y4K0); assay: Western-based magnetic bead assay for free/unbound LOXL2 in human plasma pre-incubated with compound; type: binding; parameters: from tissue; host or cells: human plasma (donors / healthy volunteers); conditions: 10 mL human plasma, 2 hours at 37° C., capture with FG beads (Compound 1-7)
T1 sequence (Q9Y4K0 26-774): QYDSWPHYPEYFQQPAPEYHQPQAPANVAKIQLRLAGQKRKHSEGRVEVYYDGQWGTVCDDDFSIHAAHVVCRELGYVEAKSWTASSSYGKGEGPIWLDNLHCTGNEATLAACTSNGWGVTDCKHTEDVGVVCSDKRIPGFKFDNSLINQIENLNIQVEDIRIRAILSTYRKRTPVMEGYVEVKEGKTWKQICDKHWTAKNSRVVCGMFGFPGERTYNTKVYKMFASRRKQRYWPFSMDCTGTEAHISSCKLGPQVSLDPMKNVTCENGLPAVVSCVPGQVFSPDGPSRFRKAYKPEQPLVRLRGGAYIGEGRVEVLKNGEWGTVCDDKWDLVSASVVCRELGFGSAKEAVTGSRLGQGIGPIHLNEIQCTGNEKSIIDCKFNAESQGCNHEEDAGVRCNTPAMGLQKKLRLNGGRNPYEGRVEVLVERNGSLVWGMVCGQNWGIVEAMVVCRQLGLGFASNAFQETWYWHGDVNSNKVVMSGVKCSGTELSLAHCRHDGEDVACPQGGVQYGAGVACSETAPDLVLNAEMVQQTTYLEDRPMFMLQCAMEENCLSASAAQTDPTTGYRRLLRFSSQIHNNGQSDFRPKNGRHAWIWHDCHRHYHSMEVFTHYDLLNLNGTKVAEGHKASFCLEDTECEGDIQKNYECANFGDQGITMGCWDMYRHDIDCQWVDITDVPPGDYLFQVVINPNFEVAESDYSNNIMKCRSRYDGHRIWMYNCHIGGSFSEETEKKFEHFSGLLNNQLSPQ
Experimental: Beads are resuspended to 10 mg/mL in Wash Buffer (20 mM Tris pH 8, 0.2% NP-40, 120 mM NaCl) and 1 mg beads (100 μL) are added to 1-10 mL of plasma, serum or other biological fluid containing LOXL2 and incubated at 37° C. for 0.5-2 hours with rotation. Beads are separated from plasma or other matrix using magnetic separation (for example, DynaMag™-15 Magnet) for 10 minutes at room temperature then the plasma/matrix carefully removed. The beads are resuspended in 1 mL Wash Buffer, vortexed and centrifuged at 4500×g for 5 minutes at room temperature to move all beads to the bottom of the tube. Beads are transferred to a 1.5 mL microfuge tube and washed 3 times with Wash Buffer using magnetic separation (for example, DynaMag™-2 Magnet). After the final wash, beads are resuspended in 40 μL of 1× BOLT® LDS Sample Buffer (Thermo Fisher, Waltham, Mass.) containing 1× BOLT® Sample Reducing Agent (Thermo Fisher, Waltham, Mass.) and incubated for 10 minutes at 90° C. Samples are centrifuged at 10,000×g for 1 minute then magnetically separated using a DynaMag™-2 Magnet for 2 minutes. 40 μL of each supernatant is loaded into one well of a 10 well 4-12% Bis-Tris Plus gel (Thermo Fisher, Waltham, Mass.) and the gels run for 45 minutes at 164 volts in 1×MES SDS Running Buffer (Thermo Fisher, Waltham, Mass.). […]

[2] = biological target: T1, LOXL2; assay: Human LOXL2 amine oxidase activity assay (Amplex Red); type: biochemical; parameters: expressed in transfected cells; host or cells: CHO cells stably expressing human LOXL2; 10-20x concentrated conditioned media; conditions: concentrated conditioned media from CHO cells expressing human LOXL2; 2 h at 37° C. pre-incubation
Experimental: LOXL2 amine oxidase activity is evaluated by measuring Amplex Red fluorescence using 10-20× concentrated conditioned media from CHO cells stably expressing human LOXL2. To assay for amine oxidase activity, 10 μL of the concentrated conditioned media is incubated with 2 μL of test compound in DMSO and 73 μL Assay Buffer (50 mM Borate Buffer, pH8) for 2 h at 37° C. After the 2 h incubation, 5 μL of 10 mM 1,5-diaminopentane (DAP) diluted in Assay Buffer and 10 μL of Amplex Red Mix (8.5 μL Assay Buffer+0.5 μL of 10 mM Amplex Red+1 μL of 500 U/mL Horseradish Peroxidase) are added and the plate mixed and immediately placed on the FlexStaion for fluorescence measurements. Fluorescence is read in kinetic mode every 2 min for 1 hour at excitation=544 nm and emission=590 nm. The amine oxidase activity is calculated from the slope of the linear portion of the curve.

[3] = biological target: T1, LOXL2; assay: LOXL2 target engagement in plasma of healthy volunteers after single oral dose (Western-based FG bead assay); type: in vivo; parameters: from tissue; host or cells: human plasma (donors / healthy volunteers)
Experimental: Beads are resuspended to 10 mg/mL in Wash Buffer (20 mM Tris pH 8, 0.2% NP-40, 120 mM NaCl) and 1 mg beads (100 μL) are added to 1-10 mL of plasma, serum or other biological fluid containing LOXL2 and incubated at 37° C. for 0.5-2 hours with rotation. Beads are separated from plasma or other matrix using magnetic separation (for example, DynaMag™-15 Magnet) for 10 minutes at room temperature then the plasma/matrix carefully removed. The beads are resuspended in 1 mL Wash Buffer, vortexed and centrifuged at 4500×g for 5 minutes at room temperature to move all beads to the bottom of the tube. Beads are transferred to a 1.5 mL microfuge tube and washed 3 times with Wash Buffer using magnetic separation (for example, DynaMag™-2 Magnet). After the final wash, beads are resuspended in 40 μL of 1× BOLT® LDS Sample Buffer (Thermo Fisher, Waltham, Mass.) containing 1× BOLT® Sample Reducing Agent (Thermo Fisher, Waltham, Mass.) and incubated for 10 minutes at 90° C. Samples are centrifuged at 10,000×g for 1 minute then magnetically separated using a DynaMag™-2 Magnet for 2 minutes. 40 μL of each supernatant is loaded into one well of a 10 well 4-12% Bis-Tris Plus gel (Thermo Fisher, Waltham, Mass.) and the gels run for 45 minutes at 164 volts in 1×MES SDS Running Buffer (Thermo Fisher, Waltham, Mass.). Gels are transferred to nitrocellulose using iBlot (Thermo Fisher, Waltham, Mass.) according to the manufacturer's recommendation. Blots are incubated in Bullet Blocking One (Nacalai USA, Inc) for 5 minutes at room temperature then incubated overnight at 4° C. with an anti-LOXL2 antibody (for example, R&D Systems goat polyclonal) diluted in Signal Enhancer Solution 1 (Nacalai USA, Inc). Blots are rinsed quickly twice in PBS/0.1% tween-20 then washed 3 times for 10 minutes each in the PBS/tween solution. A secondary infrared dye (IRdye)-conjugated secondary antibody (LI-COR Biosciences, Lincoln, Neb.) diluted in Signal Enhancer 2 (Nacalai USA, Inc) is added to the blot and incubated for 45 minutes-1 hour at room temperature in the dark. Blots are washed as above with PBS/tween then rinsed in PBS before imaging with a LI-COR Odyssey (LI-COR, Lincoln, Neb.).
Healthy human subjects (male and female) were dosed with compound 2 in solution. […] Placebo data is the average of all the placebo subjects in the single dose study (n=10).

decrease of free/unbound LOXL2 relative to vehicle control ([1]; 1 μM): approximately 63%
decrease of free/unbound LOXL2 relative to vehicle control ([1]; 10 μM): ~100%
IC50 [2]: < 300 nM
Ave plasma % TE ([3]; 150 mg single oral dose, 2 hour post-dose): 62%
average decrease of free/unbound LOXL2 in plasma ([3]; 150 mg single oral dose, 2 hours post-dosing, healthy subjects): approximately 60%
Ave plasma % TE ([3]; 150 mg single oral dose, 24 hour post-dose): 20%
Ave plasma % TE ([3]; 450 mg single oral dose, 2 hour post-dose): 78%
Ave plasma % TE ([3]; 450 mg single oral dose, 24 hour post-dose): −13%
Ave plasma % TE ([3]; 1000 mg single oral dose, 2 hour post-dose): 92%
Ave plasma % TE ([3]; 1000 mg single oral dose, 24 hour post-dose): 1%
IC50 ([3]; plasma samples of healthy volunteers dosed with compound 1-13a, read-out: IC50 of % target engagement versus plasma concentration): 905 nM
Structure (SMILES): NCc1cc(Oc2cccc(C(=O)N3C[C@@H](O)[C@H](F)C3)c2)nc(C(F)(F)F)c1 [Compound 1-13a, (R,R)-trans-(3-((4-(Aminomethyl)-6-(trifluoromethyl)pyridin-2-yl)oxy)phenyl)(3-fluoro-4-hydroxypyrrolidin-1-yl)methanone hydrochloride]
